# Structures can show the parent of a compound that is named as a salt. Where two headings read alike, the source gives them in different places.
# Assays:
# [1] = In vitro drug release by the dialysis bag method; assay type: physicochemical; conditions: 48 h
# Description: The in vitro drug release behavior of TMS-NLCs was carried out over 48 h by the dialysis bag method. Briefly, TMS-NLCs or the corresponding active pharmaceutical ingredient (API) of TMS (3 mL, 10 mg/mL) was added into a dialysis bag (MWCO of 100 kD, 16 mm, and 0.79 mL/cm), immersed in the simulated gastric or intestinal juice (500 mL) at 37 °C, and stirred under the magnetic stirrer with 100 rpm. At the set time, the samples (1 mL) were taken out and substituted by the same volume of fresh receptor fluids, and the TMS concentrations were detected by HPLC.
# In this study, the concentrations of TMS in various media were detected with HPLC (Thermo U3000, Thermo Fisher Scientific, New York, NY, USA) with a C18 Reverse-phase column (5 µm, 4.6 mm inner diameter × 250 mm length, Agilent, Palo Alto, CA, USA). The mobile phase was acetonitrile–tetrahydrofuran–water–n-dibutylamine phosphate buffer salt solution (12:5.5:80:2.5; v/v). The column temperature was 30 °C, the injection volume was 20 µL, the UV detection wavelength was 291 nm, and the flow rate was 1 mL/min. The samples were filtered through a 0.22 µm filter membrane before HPLC analysis. The concentration of TMS was calculated using the standard curve equation (y = 31.314x − 2.0603, R^2 = 0.9999) for HPLC analysis of TMS, which had the good linear pattern over a range from 1 to 20 µg/mL as reported previously.
# [2] = Bidirectional transport of API and TMS-NLCs across cell monolayers; assay type: in vitro ADME, canine; conditions: dog, MDCK; for Papp A→B at 4 h, 10 µg/mL / Papp B→A at 4 h, 10 µg/mL: 37 °C; for efflux ratio at 4 h, 10 µg/mL: read-out: ER
# Description: (§1) MDCK and MDCK-chAbcg2/Abcb1 cells were seeded on 12-well Transwell® polycarbonate inserts at a density of 2 × 10^5 cells per well to constitute in vitro cell monolayer models. The apical side (AP) of the insert was filled with 0.5 mL medium, and the basolateral (BL) side was filled with 1.5 mL medium. The medium was replaced every two days. It took 5~7 days to form an intact cell monolayer.
# (§2) The permeability efficiency was evaluated by comparing the bidirectional transport between API and TMS-NLCs. Briefly, apical-to-basolateral (AP→BL) and basolateral-to-apical (BL→AP) transport across monolayers was conducted by adding 10 µg/mL API or TMS-NLCs to donor compartments and incubating at 37 °C for 4 h. Then, the samples from receiver compartments were taken to analyze TMS concentrations by HPLC.
# (§3) TMS is the substrate of glycoprotein (P-gp). To evaluate the inhibition effect of TMS-NLCs on P-gp mediated efflux, cell monolayers were incubated with the P-gp inhibitor verapamil (100 µM) for 1 h, and then, the medium was replaced with a mixture of verapamil and API or TMS-NLCs on one side and co-incubated for 4 h for bidirectional transport assay.
# (§4) The efflux ratio (ER) and net efflux ratio (NER) values were obtained from the following equation [27, 28]:ER = Papp(BL→AP)/Papp(AP→BL) NER = ER(MDCK-chAbcg2/Abcb1)/ER(MDCK).
# [3] = tested on: MDCK-chAbcg2/Abcb1 cell monolayers; assay: as above; assay type: in vitro ADME, canine; conditions: ER(MDCK-chAbcg2/Abcb1)/ER(MDCK)
# Description: as §1, §2, §3, §4
# [4] = tested on: chAbcg2/Abcb1 (P-gp); assay: as above; assay type: in vitro ADME, canine; conditions: dog, MDCK-chAbcg2/Abcb1; for Papp A→B at 4 h, 10 µg/mL / Papp B→A at 4 h, 10 µg/mL: 37 °C; for efflux ratio at 4 h, 10 µg/mL: read-out: ER
# Description: as §1, §2, §3, §4
# [5] = tested on: MDCK-chAbcg2/abcb1 monolayers; assay: Transport mechanism of TMS-NLCs across monolayers (tracers, 4 °C, endocytosis inhibitors)
# Description: To investigate the transport mechanism of TMS-NLCs, propranolol (100 µM) and lucifer yellow (225 µM) as the tracers were added to the AP side and co-incubated with TMS-NLCs for 4 h. The tracers that passed through monolayers to the BL side were quantified. The transport experiments of TMS-NLCs across MDCK-chAbcg2/abcb1 monolayers were also conducted at 4 °C. To get further insights into the transcellular transport of TMS-NLCs, the monolayers were pre-incubated with various endocytosis inhibitors on the AP side for 1 h and then co-incubated with TMS-NLCs for 4 h. The determination of TMS in the samples collected from the BL side was analyzed by HPLC.
# [6] = tested on: MDCK cells; assay: MTT cell viability; assay type: cell-based, canine; conditions: up to 50 µg/mL, 4 h, Figure 4A
# Description: (§5) MTT assay was used to evaluate cell viability. Cells were seeded on 96-well plates 1 × 10^4 cells per well, cultured for 24 h until 90% confluent, and exposed to different concentrations of NLCs for 4 h. Then, the medium was replaced with 20 µL MTT (5 mg/mL) and 180 µL serum-free medium. After incubation for 4 h, the medium containing MTT was substituted with 150 µL DMSO. The absorbance of formazan was measured by a microplate reader (BIO-RAD, Hercules, CA, USA) at 490 nm. Untreated cells were taken as the control. The cytotoxicity was expressed as the cell viability compared with the untreated cells. Similarly, the cytotoxicity of endocytosis inhibitors were also evaluated, and the concentrations of each drug were chosen on the basis of the published literature, and EIPA (50 µM), chlorpromazine (30 µM), dynasore (80 µM), and MβCD (2 mM) were used in the present study.
# [7] = tested on: MDCK-chAbcg2/Abcb1 cells; assay: MTT cell viability; assay type: cell-based, canine; conditions: up to 50 µg/mL, 4 h, Figure 4B
# Description: as §5
# [8] = tested on: Escherichia coli ATCC 25922; assay: Microdilution broth MIC; assay type: cell-based; conditions: ATCC25922, E. coli
# Description: (§6) Microdilution broth assay was carried out to evaluate the antibacterial activity of API and TMS-NLCs according to the guidelines of the CLSI. The minimal inhibitory concentration (MIC) was determined against 2 strains of Gram-positive bacteria and 2 strains of Gram-negative bacteria. Staphylococcus aureus QWJAB25 and Streptococcus agalactiae A27 were isolated from milk in a scale farm located in Yangzhou, Jiangsu Province in 2019. The Escherichia coli used in this study was ATCC 25922. The Salmonella Typhimurium strain 1344 was donated by Associate Professor Jian Lin from College of Life Sciences, Nanjing Agricultural University.
# [9] = tested on: Salmonella Typhimurium strain 1344; assay: Microdilution broth MIC; assay type: cell-based; conditions: Salmonella enterica; S. Typhimurium
# Description: as §6
# [10] = tested on: Staphylococcus aureus QWJAB25; assay: Microdilution broth MIC; assay type: cell-based; conditions: S. aureus
# Description: as §6
# [11] = tested on: Streptococcus agalactiae A27; assay: Microdilution broth MIC; assay type: cell-based; conditions: S. agalactiae
# Description: as §6
# [12] = tested on: MDCK cell monolayers; assay: Permeability of cell monolayers (tracers); assay type: in vitro ADME, canine; conditions: AP to BL, 4 h, 37 °C, lucifer yellow 225 µM, propranolol 100 µM
# Description: as §1
# (§7) During the cultivation, the integrity of cell monolayers was evaluated by the transepithelial electrical resistance (TEER) values measured with Epithelial Volt-Ohm Meter (Millipore, Burlington, MA, USA). Monolayers with TEER values over 500 and 1700 Ω·cm^2 of MDCK and MDCK-chAbcg2/Abcb1 cells respectively were used for drug transport experiments, and the TEER values were also checked after the transport experiment to guarantee the integrity of cell monolayers. TEER = (Rtotal − Rblank) × A (Ω·cm^2)
# (§8) After a week of cultivation, the AP side was filled with 0.5 mL propranolol (100 µM) or lucifer yellow (225 µM) and 1.5 mL of Hank’s solution on the BL side for 4 h at 37 °C. The solution on the BL side was collected for fluorescence analysis. The detection wavelengths were 428/540 nm ([…]) and 290/330 nm (propranolol), respectively. The apparent permeability coefficient (Papp) was calculated according to the following equation [24]:Papp = dQ/(dt * AC0) where dQ/dt is the transport rate in the receiver solution, A is the membrane surface area, and C0 is the initial concentration in the donor compartment.
# [13] = tested on: MDCK-chAbcg2/Abcb1 cell monolayers; assay: Permeability of cell monolayers (tracers); assay type: in vitro ADME, canine; conditions: AP to BL, 4 h, 37 °C, lucifer yellow 225 µM, propranolol 100 µM
# Description: as §1, §7, §8
# [14] = Permeability of cell monolayers (tracers); assay type: in vitro ADME, canine; conditions: dog, 37 °C, lucifer yellow 225 µM, propranolol 100 µM
# Description: as §1, §7, §8
compound,measurement,setting,value
"CC[C@H]1OC(=O)C[C@@H](O)[C@H](C)[C@@H](O[C@@H]2O[C@H](C)[C@@H](O)[C@H](N(C)C)[C@H]2O)[C@@H](CCN2C[C@H](C)C[C@H](C)C2)C[C@@H](C)C(=O)/C=C/C(C)=C/[C@@H]1CO[C@@H]1O[C@H](C)[C@@H](O)[C@@H](OC)[C@H]1OC [API, Tilmicosin]",in vitro release,"[1]; SGF, pH 1.2, 37 °C",~80%
same,in vitro release,"[1]; SIF, pH 6.8, 37 °C",~80%
same,"Papp A→B at 4 h, 10 µg/mL",[2]; with verapamil (100 µM),0.38 ± 0.02 ×10⁻⁶ cm/s
same,"Papp B→A at 4 h, 10 µg/mL",[2]; with verapamil (100 µM),0.41 ± 0.04 ×10⁻⁶ cm/s
same,"efflux ratio at 4 h, 10 µg/mL",[2]; with verapamil (100 µM),1.06
same,"Papp A→B at 4 h, 10 µg/mL",[2]; without verapamil,0.42 ± 0.04 ×10⁻⁶ cm/s
same,"Papp B→A at 4 h, 10 µg/mL",[2]; without verapamil,0.53 ± 0.02 ×10⁻⁶ cm/s
same,"efflux ratio at 4 h, 10 µg/mL",[2]; without verapamil,1.27
same,NER,[3]; with verapamil (100 µM),0.94
same,NER,[3]; without verapamil,2.07
same,"Papp A→B at 4 h, 10 µg/mL",[4]; with verapamil (100 µM),0.39 ± 0.04 ×10⁻⁶ cm/s
same,"Papp B→A at 4 h, 10 µg/mL",[4]; with verapamil (100 µM),0.39 ± 0.07 ×10⁻⁶ cm/s
same,"efflux ratio at 4 h, 10 µg/mL",[4]; with verapamil (100 µM),1
same,"Papp A→B at 4 h, 10 µg/mL",[4]; without verapamil,0.4 ± 0.02 ×10⁻⁶ cm/s
same,"Papp B→A at 4 h, 10 µg/mL",[4]; without verapamil,1.06 ± 0.03 ×10⁻⁶ cm/s
same,"efflux ratio at 4 h, 10 µg/mL",[4]; without verapamil,2.63
same,Papp at 4 °C,[5],under the detection limit
same,cell viability compared to untreated cells,[6],not significantly decreased
same,cell viability compared to untreated cells,[7],not significantly decreased
same,MIC,[8],16 µg/mL
same,MIC,[9],16 µg/mL
same,MIC,[10],< 0.5 µg/mL
same,MIC,[11],16 µg/mL
lucifer yellow,Papp,[12],0.22 ± 0.06 ×10^−6 cm/s
same,Papp,[13],0.13 ± 0.01 ×10^−6 cm/s
same,Papp of tracer co-incubated with TMS-NLCs versus without,"[5]; AP side, 4 h, Figure 5A",no significant difference
"CC(C)NCC(O)COc1cccc2ccccc12 (centres unmarked) [Propranolol, propranolol hydrochloride]","Papp at 4 h, 100 µM","[14]; MDCK, AP to BL",16.2 ± 0.65 ×10⁻⁶ cm/s
same,"Papp at 4 h, 100 µM","[14]; MDCK-chAbcg2/Abcb1, AP to BL",17.6 ± 0.64 ×10⁻⁶ cm/s
same,Papp of tracer co-incubated with TMS-NLCs versus without,[5],no significant difference
